Patent publication US20230139171A1 (SITA Information Networking Computing UK Limited, priority 2019, published 2023)

Assays:
human TLR7 = target: T1, human TLR7 (Homo sapiens, UniProt Q9NYK1); experiment: TLR7 inhibition reporter assay (HEK-Blue cells, SEAP reporter, gardiquimod stimulation); assay type: cell-based; conditions: HEK-Blue cells overexpressing human TLR7, SEAP reporter, gardiquimod 7.5 μM; read-out: TLR7 IC50
T1 construct: host or cells: HEK-Blue cells
T1 sequence (Q9NYK1 27-1049): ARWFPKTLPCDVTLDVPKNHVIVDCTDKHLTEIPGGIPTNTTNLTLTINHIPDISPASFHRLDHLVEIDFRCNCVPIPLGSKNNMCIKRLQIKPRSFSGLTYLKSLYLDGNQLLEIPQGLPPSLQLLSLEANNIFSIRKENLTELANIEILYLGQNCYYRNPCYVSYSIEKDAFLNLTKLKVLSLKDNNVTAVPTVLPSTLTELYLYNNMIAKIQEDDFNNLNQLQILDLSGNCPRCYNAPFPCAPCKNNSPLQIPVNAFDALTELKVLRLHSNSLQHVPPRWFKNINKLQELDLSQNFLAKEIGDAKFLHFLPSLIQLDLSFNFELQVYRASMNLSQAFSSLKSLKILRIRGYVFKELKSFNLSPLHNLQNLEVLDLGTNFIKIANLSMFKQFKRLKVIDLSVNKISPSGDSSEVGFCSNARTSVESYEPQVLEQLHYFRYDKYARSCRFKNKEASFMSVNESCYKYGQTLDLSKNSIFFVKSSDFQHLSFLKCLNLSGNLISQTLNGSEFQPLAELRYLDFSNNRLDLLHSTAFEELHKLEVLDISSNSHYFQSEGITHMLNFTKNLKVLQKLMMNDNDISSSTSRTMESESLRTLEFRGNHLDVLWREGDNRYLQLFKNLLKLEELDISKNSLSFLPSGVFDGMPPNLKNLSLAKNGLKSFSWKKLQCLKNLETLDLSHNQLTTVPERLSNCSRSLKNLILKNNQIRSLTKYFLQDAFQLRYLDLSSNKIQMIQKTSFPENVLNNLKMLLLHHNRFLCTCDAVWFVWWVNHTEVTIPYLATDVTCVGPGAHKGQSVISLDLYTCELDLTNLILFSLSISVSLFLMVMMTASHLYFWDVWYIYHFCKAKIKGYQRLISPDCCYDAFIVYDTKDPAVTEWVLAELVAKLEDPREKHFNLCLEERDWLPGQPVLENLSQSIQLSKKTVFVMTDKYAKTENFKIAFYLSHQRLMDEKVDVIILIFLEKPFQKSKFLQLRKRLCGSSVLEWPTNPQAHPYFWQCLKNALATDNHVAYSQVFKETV
Procedure: (§1) TLR7/8/9 Inhibition Reporter Assays
(§2) HEK-Blue™-cells (Invivogen) overexpressing human TLR7, TLR8 or TLR9 receptors were used for screening inhibitors of these receptors using an inducible SEAP (secreted embryonic alkaline phosphatase) reporter gene under the control of the IFN-β minimal promoter fused to five NF-κB and AP-1-binding sites. Briefly, cells are seeded into Greiner 384 well plates (15000 cells per well for TLR7, 20,000 for TLR8 and 25,000 for TLR9) and then treated with test compounds in DMSO to yield a final dose response concentration range of 0.05 nM-50 μM. After a 30 minute compound pre-treatment at room temperature, the cells are then stimulated with a TLR7 ligand (gardiquimod at a final concentration of 7.5 μM), TLR8 ligand (R848 at a final concentration of 15.9 μM) or TLR9 ligand (ODN2006 at a final concentration of 5 nM) to activate NF-κB and AP-1 which induce the production of SEAP. After a 22 hour incubation at 37° C., 5% CO2, SEAP levels are determined with the addition of HEK-Blue™ Detection reagent (Invivogen), a cell culture medium that allows for detection of SEAP, according to manufacturer's specifications. The percent inhibition is determined as the % reduction in the HEK-Blue signal present in wells treated with agonist plus DMSO alone compared to wells treated with a known inhibitor.

human TLR8 = target: T2, human TLR8 (Homo sapiens, UniProt Q9NR97); experiment: TLR8 inhibition reporter assay (HEK-Blue cells, SEAP reporter, R848 stimulation); assay type: cell-based; conditions: HEK-Blue cells overexpressing human TLR8, SEAP reporter, R848 15.9 μM; read-out: TLR8 IC50
T2 construct: host or cells: HEK-Blue cells
T2 sequence (Q9NR97 27-1041): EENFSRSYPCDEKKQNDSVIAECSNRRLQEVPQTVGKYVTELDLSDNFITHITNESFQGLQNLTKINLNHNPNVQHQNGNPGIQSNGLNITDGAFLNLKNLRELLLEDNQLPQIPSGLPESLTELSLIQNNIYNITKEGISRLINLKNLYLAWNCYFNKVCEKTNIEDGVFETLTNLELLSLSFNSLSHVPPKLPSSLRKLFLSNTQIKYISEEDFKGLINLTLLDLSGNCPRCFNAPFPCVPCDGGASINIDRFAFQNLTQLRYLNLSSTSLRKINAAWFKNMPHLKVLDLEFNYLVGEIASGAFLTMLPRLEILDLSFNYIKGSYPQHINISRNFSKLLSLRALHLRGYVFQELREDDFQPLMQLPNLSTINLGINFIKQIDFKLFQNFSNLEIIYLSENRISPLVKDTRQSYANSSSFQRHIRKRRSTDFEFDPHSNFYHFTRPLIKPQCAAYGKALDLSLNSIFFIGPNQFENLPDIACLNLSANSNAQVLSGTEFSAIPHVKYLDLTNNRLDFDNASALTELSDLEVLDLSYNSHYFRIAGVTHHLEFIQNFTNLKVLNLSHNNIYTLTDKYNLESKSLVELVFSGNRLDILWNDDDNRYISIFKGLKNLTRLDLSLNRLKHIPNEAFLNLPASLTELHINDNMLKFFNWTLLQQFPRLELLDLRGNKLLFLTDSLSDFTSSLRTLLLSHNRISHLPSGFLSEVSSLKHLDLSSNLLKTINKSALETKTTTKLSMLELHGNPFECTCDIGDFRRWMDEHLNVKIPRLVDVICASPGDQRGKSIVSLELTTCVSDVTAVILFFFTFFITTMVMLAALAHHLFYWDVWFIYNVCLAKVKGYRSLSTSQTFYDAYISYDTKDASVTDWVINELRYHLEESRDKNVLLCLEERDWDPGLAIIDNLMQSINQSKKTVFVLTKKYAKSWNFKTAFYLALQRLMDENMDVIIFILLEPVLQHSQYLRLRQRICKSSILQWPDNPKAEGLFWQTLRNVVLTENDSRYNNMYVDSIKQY
Procedure: as §1, §2

Row | IC50 (human TLR7) [nM] | IC50 (human TLR8) [nM] | Structure (SMILES)
1 | 3.98 | 3.02 | CC(C)c1c(-c2cn(C)c3ncccc23)[nH]c2sc(C3CCN(CC(N)=O)CC3)nc12 [Example 31, 2-(4-(6-isopropyl-5-(1-methyl-1H-pyrrolo[2,3-b]pyridin-3-yl)-4H-pyrrolo[3,2-d]thiazol-2-yl)piperidin-1-yl) acetamide]
2 | 3.41 | 15.9 | CC(C)c1c(-c2cn(C)c3ncccc23)[nH]c2sc(C3CCN(C(=O)CN(C)C)CC3)nc12 [Example 32, 2-(dimethylamino)-1-(4-(6-isopropyl-5-(1-methyl-1H-pyrrolo[2,3-b]pyridin-3-yl)-4H-pyrrolo[3,2-d]thiazol-2-yl)piperidin-1-yl)ethan-1-one]
3 | 3.86 | 1.52 | CC(C)c1c(-c2cn(C)c3ncccc23)[nH]c2sc(C3CCN(CCS(C)(=O)=O)CC3)nc12 [Example 33, 6-isopropyl-5-(1-methyl-1H-pyrrolo[2,3-b]pyridin-3-yl)-2-(1-(2-(methylsulfonyl)ethyl)piperidin-4-yl)-4H-pyrrolo[3,2-d]thiazole]
4 | 4.44 | 4.94 | CC(C)c1c(-c2cn(C)c3ncccc23)[nH]c2sc(C3CCN(C4COC4)CC3)nc12 [Example 34, 6-isopropyl-5-(1-methyl-1H-pyrrolo[2,3-b]pyridin-3-yl)-2-(1-(oxetan-3-yl)piperidin-4-yl)-4H-pyrrolo[3,2-d]thiazole]
5 | 2.54 | 5.22 | Cc1c(-c2[nH]c3sc(C4CCN(C5COC5)CC4)nc3c2C(C)C)cn2ncnc2c1C [Example 43, 5-(7,8-dimethyl-[1,2,4]triazolo[1,5-a]pyridin-6-yl)-6-isopropyl-2-(1-(oxetan-3-yl)piperidin-4-yl)-4H-pyrrolo[3,2-d]thiazole]
6 | 2.99 | 1.15 | Cc1c(-c2[nH]c3sc(C4CCN(CCS(C)(=O)=O)CC4)nc3c2C(C)C)cn2ncnc2c1C [Example 55, 5-(7,8-dimethyl-[1,2,4]triazolo[1,5-a]pyridin-6-yl)-6-isopropyl-2-(1-(2-(methylsulfonyl)ethyl)piperidin-4-yl)-4H-pyrrolo[3,2-d]thiazole]
7 | 4.36 | 3.43 | CNC(=O)CN1CCC(c2nc3c(C(C)C)c(-c4cn5ncnc5c(C)c4C)[nH]c3s2)CC1 [Example 56, 2-(4-(5-(7,8-dimethyl-[1,2,4]triazolo[1,5-a]pyridin-6-yl)-6-isopropyl-4H-pyrrolo[3,2-d]thiazol-2-yl)piperidin-1-yl)-N-methylacetamide]
8 | 5.83 | 47.2 | CC(=O)N1CCC(c2nc3c(C(C)C)c(-c4cn5ncnc5c(C)c4C)[nH]c3s2)CC1 [Example 59, 1-(4-(5-(7,8-dimethyl-[1,2,4]triazolo[1,5-a]pyridin-6-yl)-6-isopropyl-4H-pyrrolo[3,2-d]thiazol-2-yl)piperidin-1-yl)ethan-1-one]
9 | 36.6 | 27.9 | Cc1c(-c2[nH]c3sc(C4CCN(C5COC5)CC4)nc3c2C(C)C)cn(C)c(=O)c1C [Example 60, 5-(6-isopropyl-2-(1-(oxetan-3-yl)piperidin-4-yl)-4H-pyrrolo[3,2-d]thiazol-5-yl)-1,3,4-trimethylpyridin-2(1H)-one]
10 | 22.7 | 5.33 | Cc1c(-c2[nH]c3sc(C4CCN(CCS(C)(=O)=O)CC4)nc3c2C(C)C)cn(C)c(=O)c1C [Example 61, 5-(6-isopropyl-2-(1-(2-(methylsulfonyl)ethyl)piperidin-4-yl)-4H-pyrrolo[3,2-d]thiazol-5-yl)-1,3,4-trimethylpyridin-2(1H)-one]
11 | 88.6 | 22.3 | Cc1c(-c2[nH]c3sc(C4CCN(CC(=O)N(C)C)CC4)nc3c2C(C)C)cn(C)c(=O)c1C [Example 62, 2-(4-(6-isopropyl-5-(1,4,5-trimethyl-6-oxo-1,6-dihydropyridin-3-yl)-4H-pyrrolo[3,2-d]thiazol-2-yl)piperidin-1-yl)-N,N-dimethylacetamide]
12 | 24.8 | 14.6 | CNC(=O)CN1CCC(c2nc3c(C(C)C)c(-c4cn(C)c(=O)c(C)c4C)[nH]c3s2)CC1 [Example 63, 2-(4-(6-isopropyl-5-(1,4,5-trimethyl-6-oxo-1,6-dihydropyridin-3-yl)-4H-pyrrolo[3,2-d]thiazol-2-yl)piperidin-1-yl)-N-methylacetamide]
13 | 32.7 | 10.4 | Cc1c(-c2[nH]c3sc(C4CCN(CC(N)=O)CC4)nc3c2C(C)C)cn(C)c(=O)c1C [Example 64, 2-(4-(6-isopropyl-5-(1,4,5-trimethyl-6-oxo-1,6-dihydropyridin-3-yl)-4H-pyrrolo[3,2-d]thiazol-2-yl)piperidin-1-yl)acetamide]
14 | 29.8 | 5.33 | Cc1c(-c2[nH]c3sc(N4CCN(CCS(C)(=O)=O)CC4)nc3c2C(C)C)cn2ncnc2c1C [Example 282, 5-(7,8-dimethyl-[1,2,4]triazolo[1,5-a]pyridin-6-yl)-6-isopropyl-2-(4-(2-(methylsulfonyl)ethyl)piperazin-1-yl)-4H-pyrrolo[3,2-d]thiazole]
15 | 18.8 | 1.7 | Cc1c(-c2[nH]c3sc(N4CCN(CC(=O)N(C)C)CC4)nc3c2C(C)C)cn2ncnc2c1C [Example 283, 2-(4-(5-(7,8-dimethyl-[1,2,4]triazolo[1,5-a]pyridin-6-yl)-6-isopropyl-4H-pyrrolo[3,2-d]thiazol-2-yl)piperazin-1-yl)-N,N-dimethylacetamide]
16 | 9.6 | 5.12 | CNC(=O)CN1CCN(c2nc3c(C(C)C)c(-c4cn5ncnc5c(C)c4C)[nH]c3s2)CC1 [Example 284, 2-(4-(5-(7,8-dimethyl-[1,2,4]triazolo[1,5-a]pyridin-6-yl)-6-isopropyl-4H-pyrrolo[3,2-d]thiazol-2-yl)piperazin-1-yl)-N-methylacetamide]
17 | 1120 |  | Cc1cc(-c2[nH]c3sc(N4CCN(CC(C)(C)O)C[C@H]4C)nc3c2C(C)C)cn2ncnc12 [Example 359, (R)-1-(4-(6-isopropyl-5-(8-methyl-[1,2,4]triazolo[1,5-a]pyridin-6-yl)-4H-pyrrolo[3,2-d]thiazol-2-yl)-3-methylpiperazin-1-yl)-2-methylpropan-2-ol]
